This is an account of results in EP0415776A2, “Indolobenzoquinoline derivatives, their preparation and their use as anti-arrhythmic drugs” (Sankyo Company Limited, priority 1989, dated 1991).

Where a name gives a salt, the structure may show the parent alone.

The assay relates to arrhythmias caused by myocardial ischemia in dogs. Kind of assay: arrhythmias caused by myocardial ischemia in dogs (glass bead injected into left coronary artery). It is filed as in vivo, Male Beagles. The protocol:
Male Beagles weighing 8 - 12 kg were anesthetized with sodium pentobarbital (30 mg/kg i.v.). The animal was placed in a supine position, and the left carotid artery was isolated from the surrounding tissue. A metal cannula was then introduced from the left carotid artery and its tip was placed at the coronary orifice. A glass bead having a diameter of 1.7 mm was injected through the metal cannula into the left coronary artery. The glass bead injection produced a ST segment elevation, which was followed by ventricular arrhythmias due to myocardial infarction.
The dog was used in a conscious state for 24 hours after myocardial ischemia developed, when the arrythmic ratio exceeded 70%. The arrhythmic ratio was calculated by dividing the number of arrhythmias by the total heart beats in one minute.
Figures 1 and 2 of the accompanying drawings show the course of the arrhythmias with time following a single intravenous administration of the compound of Example 1 and its racemate, respectively.

As for `N[C@@H]1Cc2c3n(c4cccc(O)c24)C(=O)C[C@H]2CCC[C@@H]1[C@@H]32` [Example 1, (3aR,4R,12aR,12bS) 4-Amino-2,3,3a,4,5,12,12a,12b-octahydro-6-hydroxyindolo[3,2,1,-ij]benz[de]quinolin-11-(1 H)-one hydrochloride sesquihydrate], the “suppressing arrhythmias, compared with racemate” value (Example 1 at 2.5 mg/kg i.v. versus racemate at 5.0 mg/kg i.v.) is recorded as “almost comparable with its racemate at 5.0 mg/kg i.v”. In addition, the “potency in anti-arrhythmic action relative to racemate” value (single i.v. administration, dogs, inferred from 2.5 mg/kg vs 5.0 mg/kg) is recorded as “about twice”. Moreover, the “number of arrhythmias per minute” value (single intravenous administration, conscious dog 24 hours after myocardial ischemia developed, course with time, Figures 1 and 2) was “decreased the number of arrhythmias per minute”.
